Assay results: patent publication US10829796B2, “Bacteria identification and antimicrobial susceptibility test” (priority 2015, dated 2020)

Key:
Assay in all cases: Antibiotic susceptibility testing (colour of media), spiked milk
Format in all cases: cell-based
[1] = test system: Streptococcus uberis; conditions: T~16 h, 37° C., bacteria samples 6d, plate configuration #3
Procedure: (§1) Tables 36 to 38 which follow show further examples of antibiotic susceptibility testing performed in accordance with the present invention. Table 36, antibiotic susceptibility testing of Staphylococcus aureus in Mueller Hinton and Tryptic Soy Broth at pre-incubation and at between 15-24 h. Tables 37 and 38, antimicrobial susceptibility testing of Streptococcus uberis and E. coli with the addition of gram negative specific antibiotic aztreonam. Tables 38 to 49 show further examples of antibiotic susceptibility testing and the outcomes are aligned with the described inventions.

[2] = test system: Staphylococcus aureus; conditions: T~16 h, 37° C., plate configuration #3
Procedure: as §1

[3] = test system: Escherichia coli; conditions: 37° C., plate configuration #3
Procedure: as §1

Cc1onc(-c2ccccc2Cl)c1C(=O)N[C@@H]1C(=O)N2[C@@H]1SC(C)(C)[C@@H]2C(=O)O [cloxacillin]
Colour of media in each well ([1]; Benzyl Penicillin or Cloxacillin 1 μg/ml): red | Colour of media in each well ([1]; Benzyl Penicillin or Cloxacillin 10 μg/ml): red | Colour of media in each well ([1]; Benzyl Penicillin or Cloxacillin 100 μg/ml): red | Colour of media in each well ([1]; Benzyl Penicillin or Cloxacillin 1,000 μg/ml): red | Colour of media in each well ([1]; Benzyl Penicillin or Cloxacillin 10,000 μg/ml): red | Colour of media in each well ([2]; bacteria samples 5c, Benzyl Penicillin or Cloxacillin 1 μg/ml): red | Colour of media in each well ([2]; bacteria samples 5c, Benzyl Penicillin or Cloxacillin 10 μg/ml): red | Colour of media in each well ([2]; bacteria samples 5c, Benzyl Penicillin or Cloxacillin 100 μg/ml): red | Colour of media in each well ([2]; bacteria samples 5c, Benzyl Penicillin or Cloxacillin 1,000 μg/ml): red | Colour of media in each well ([2]; bacteria samples 5c, Benzyl Penicillin or Cloxacillin 10,000 μg/ml): red | Colour of media in each well ([2]; bacteria samples 5e, Benzyl Penicillin or Cloxacillin 1 μg/ml): red | Colour of media in each well ([2]; bacteria samples 5e, Benzyl Penicillin or Cloxacillin 10 μg/ml): red | Colour of media in each well ([2]; bacteria samples 5e, Benzyl Penicillin or Cloxacillin 100 μg/ml): red | Colour of media in each well ([2]; bacteria samples 5e, Benzyl Penicillin or Cloxacillin 1,000 μg/ml): red | Colour of media in each well ([2]; bacteria samples 5e, Benzyl Penicillin or Cloxacillin 10,000 μg/ml): red | Colour of media in each well ([3]; T~16 h, bacteria samples 4c, Benzyl Penicillin or Cloxacillin 1 μg/ml): yellow | Colour of media in each well ([3]; T~16 h, bacteria samples 4c, Benzyl Penicillin or Cloxacillin 10 μg/ml): yellow | Colour of media in each well ([3]; T~16 h, bacteria samples 4c, Benzyl Penicillin or Cloxacillin 100 μg/ml): yellow | Colour of media in each well ([3]; T~16 h, bacteria samples 4c, Benzyl Penicillin or Cloxacillin 1,000 μg/ml): yellow | Colour of media in each well ([3]; T~16 h, bacteria samples 4c, Benzyl Penicillin or Cloxacillin 10,000 μg/ml): red | Colour of media in each well ([3]; t~16 h, bacteria samples 4e, Benzyl Penicillin or Cloxacillin 1 μg/ml): yellow | Colour of media in each well ([3]; t~16 h, bacteria samples 4e, Benzyl Penicillin or Cloxacillin 10 μg/ml): yellow | Colour of media in each well ([3]; t~16 h, bacteria samples 4e, Benzyl Penicillin or Cloxacillin 100 μg/ml): yellow | Colour of media in each well ([3]; t~16 h, bacteria samples 4e, Benzyl Penicillin or Cloxacillin 1,000 μg/ml): red | Colour of media in each well ([3]; t~16 h, bacteria samples 4e, Benzyl Penicillin or Cloxacillin 10,000 μg/ml): red
